The NIST ThermoML archive (doi:10.1021/je0504156)
Numbers after ± are expanded uncertainties.

Columns and labels:
[1] = 101 kPa, Liquid
[2] = xn = mol fraction of the nth substance listed; details: 101 kPa, Liquid

OCCO [1,2-ethanediol]
[1]
Details	mass density [kg/m3]	viscosity [mPa·s]
308.15 K	1101.88 ± 0.66	11.19 ± 0.21
313.15 K	1098.33 ± 0.65	9.444 ± 0.18
318.15 K	1094.75 ± 0.64	7.972 ± 0.16
323.15 K	1091.16 ± 0.63	6.794 ± 0.14
333.15 K	1083.94 ± 0.61	5.065 ± 0.11
343.15 K	1074.53 ± 4	3.879 ± 0.086
353.15 K	1069.72 ± 0.57	3.058 ± 0.069

OCCO [1,2-ethanediol] + Cc1cccc(O)c1
[2], x2 = 0
Details	mass density [kg/m3]	viscosity [mPa·s]
308.15 K	1101.88 ± 0.66	11.19 ± 0.21
313.15 K	1098.33 ± 0.65	9.444 ± 0.18
318.15 K	1094.75 ± 0.64	7.972 ± 0.16
323.15 K	1091.16 ± 0.63	6.794 ± 0.14
333.15 K	1083.94 ± 0.61	5.065 ± 0.11
343.15 K	1074.53 ± 4	3.879 ± 0.086
353.15 K	1069.72 ± 0.57	3.058 ± 0.069

Cc1cccc(O)c1 [3-methylphenol]
[1]
Details	mass density [kg/m3]	viscosity [mPa·s]
308.15 K	1021.64 ± 0.61	7.701 ± 0.15
313.15 K	1017.63 ± 0.6	6.12 ± 0.13
318.15 K	1013.6 ± 0.59	5.022 ± 0.11
323.15 K	1009.56 ± 0.58	4.158 ± 0.094
328.15 K	1005.93 ± 0.57	3.518 ± 0.08
333.15 K	1001.44 ± 0.57	2.98 ± 0.068
343.15 K	991.33 ± 4	2.231 ± 0.052
353.15 K	985.42 ± 0.58	1.759 ± 0.042

Cc1cccc(O)c1 [3-methylphenol] + CO
[2]
Details	mass density, 308.15 K [kg/m3]	mass density, 313.15 K [kg/m3]	mass density, 318.15 K [kg/m3]	mass density, 323.15 K [kg/m3]	mass density, 328.15 K [kg/m3]	viscosity, 308.15 K [mPa·s]	viscosity, 313.15 K [mPa·s]	viscosity, 318.15 K [mPa·s]	viscosity, 323.15 K [mPa·s]	viscosity, 328.15 K [mPa·s]
x1 = 0.0999	838.66 ± 0.79	834.09 ± 0.81	829.48 ± 0.82	824.84 ± 0.83	820.44 ± 0.85	0.725 ± 0.019	0.676 ± 0.018	0.621 ± 0.017	0.588 ± 0.016	0.533 ± 0.015
x1 = 0.1999	880.62 ± 0.68	876.22 ± 0.69	871.78 ± 0.7	867.32 ± 0.72	863.14 ± 0.73	0.976 ± 0.024	0.906 ± 0.023	0.835 ± 0.021	0.783 ± 0.02	0.72 ± 0.019
x1 = 0.2998	914.11 ± 0.6	909.92 ± 0.61	905.55 ± 0.62	901.14 ± 0.63	897.17 ± 0.64	1.319 ± 0.032	1.205 ± 0.029	1.1 ± 0.027	1.011 ± 0.025	0.933 ± 0.023
x1 = 0.3999	939.8 ± 0.55	935.58 ± 0.56	931.38 ± 0.57	927.14 ± 0.58	923.28 ± 0.59	1.778 ± 0.042	1.577 ± 0.037	1.419 ± 0.034	1.29 ± 0.031	1.18 ± 0.029
x1 = 0.4998	960.97 ± 0.52	956.82 ± 0.53	952.74 ± 0.54	948.57 ± 0.55	944.75 ± 0.55	2.367 ± 0.054	2.079 ± 0.048	1.835 ± 0.043	1.646 ± 0.039	1.459 ± 0.035
x1 = 0.6001	977.35 ± 0.51	973.31 ± 0.51	969.31 ± 0.52	965.28 ± 0.53	961.59 ± 0.54	2.958 ± 0.067	2.556 ± 0.059	2.243 ± 0.052	1.99 ± 0.046	1.788 ± 0.042
x1 = 0.6998	991.84 ± 0.51	987.87 ± 0.51	983.92 ± 0.52	979.59 ± 0.52	976.07 ± 0.53	3.767 ± 0.085	3.228 ± 0.073	2.789 ± 0.064	2.437 ± 0.056	2.144 ± 0.05
x1 = 0.7999	1002.99 ± 0.52	998.97 ± 0.52	994.93 ± 0.52	990.88 ± 0.53	987.18 ± 0.53	4.783 ± 0.11	4.007 ± 0.09	3.418 ± 0.077	2.936 ± 0.067	2.551 ± 0.059
x1 = 0.8999	1013.19 ± 0.57	1009.18 ± 0.56	1005.13 ± 0.55	1001.1 ± 0.54	997.41 ± 0.54	6.06 ± 0.13	4.978 ± 0.11	4.153 ± 0.093	3.507 ± 0.079	2.995 ± 0.068
x1 = 1	1021.64 ± 0.61	1017.63 ± 0.6	1013.6 ± 0.59	1009.56 ± 0.58	1005.93 ± 0.57	7.701 ± 0.15	6.12 ± 0.13	5.022 ± 0.11	4.158 ± 0.094	3.518 ± 0.08

CO [methanol]
[1]
Details	mass density [kg/m3]	viscosity [mPa·s]
308.15 K	776.92 ± 0.97	0.476 ± 0.014
313.15 K	772.13 ± 0.98	0.445 ± 0.013
318.15 K	767.31 ± 1	0.421 ± 0.013
323.15 K	762.46 ± 1	0.395 ± 0.012
328.15 K	757.85 ± 1	0.372 ± 0.012

CO [methanol] + Cc1cccc(O)c1
[2], x2 = 0
Details	mass density [kg/m3]	viscosity [mPa·s]
308.15 K	776.92 ± 0.97	0.476 ± 0.014
313.15 K	772.13 ± 0.98	0.445 ± 0.013
318.15 K	767.31 ± 1	0.421 ± 0.013
323.15 K	762.46 ± 1	0.395 ± 0.012
328.15 K	757.85 ± 1	0.372 ± 0.012
